# Measured values taken from patent US20240279190A1, “COMPOUNDS FOR MODULATING PLATELET-TYPE 12-(S)-LIPOXYGENASE AND METHODS OF USE FOR SAME” (The Regents of The University of California, priority 2021, published 2024).
# Positions count from the first letter of the chain named.
# Columns and labels:
# [1] = target: T1, 12-LOX mutant A417I/V418M (Homo sapiens, UniProt P18054, A417I/V418M); experiment: UV-Vis-based IC50 assay, A417I/V418M mutant; assay type: biochemical
# T1 construct: 6xHis (N); made in house; pFastBac1 shuttle vector
# T1 sequence (P18054 1-663 A417I/V418M): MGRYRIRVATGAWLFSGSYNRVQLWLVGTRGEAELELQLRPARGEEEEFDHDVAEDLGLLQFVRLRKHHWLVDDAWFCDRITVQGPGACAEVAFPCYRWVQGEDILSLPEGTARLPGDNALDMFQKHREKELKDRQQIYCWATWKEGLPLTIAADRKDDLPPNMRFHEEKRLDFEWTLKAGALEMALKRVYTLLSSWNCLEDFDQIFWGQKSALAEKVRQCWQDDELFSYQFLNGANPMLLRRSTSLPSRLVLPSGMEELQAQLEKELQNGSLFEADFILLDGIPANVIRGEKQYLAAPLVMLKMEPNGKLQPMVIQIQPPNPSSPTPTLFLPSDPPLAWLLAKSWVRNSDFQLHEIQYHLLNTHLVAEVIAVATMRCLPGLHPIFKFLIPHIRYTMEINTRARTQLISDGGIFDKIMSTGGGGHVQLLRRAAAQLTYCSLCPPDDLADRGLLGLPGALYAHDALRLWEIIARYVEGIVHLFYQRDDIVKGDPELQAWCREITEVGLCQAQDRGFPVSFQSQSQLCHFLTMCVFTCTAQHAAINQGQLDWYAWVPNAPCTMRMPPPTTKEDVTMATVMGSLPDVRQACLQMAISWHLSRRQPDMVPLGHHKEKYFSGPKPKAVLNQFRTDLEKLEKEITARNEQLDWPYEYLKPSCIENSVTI
# From the text: Based on the ML355 binding mode predicted by the modeling, all residues within 5 Å of any atom of ML355 were selected for experimental mutagenesis. The selected residues were replaced with amino acids with either bulkier or smaller side chains in order to determine what specific interactions play a role in inhibitor binding. […] The numbering refers to the UniProt accession number P18054 sequence, with the N-terminal methionine assigned as amino acid number one. The primers for all mutants were designed using the online QuikChange Primer Design tool (http://www.genomics.agilent.com/primerDesignProgram.jsp) from Agilent Technologies (CA, USA). The mutations were introduced by using the QuikChange® II XL site-directed mutagenesis kit from Agilent, following the instructions in the protocol provided. […]
# (§1) The wild type 12-LOX (wt-12-LOX) enzyme and its mutants were expressed as fusion proteins, with an N-terminal 6×His tag, and were affinity purified by nickel-iminodiacetic acid agarose using FPLC (Biorad).
# The percent inhibition was determined by comparing the enzyme rates of the control (DMSO solvent) and the inhibitor sample by following the formation of the conjugated diene product at 234 nm (ε=25,000 M^−1cm^−1). […] The substrate concentration was quantitatively determined by allowing the enzymatic reaction to go to completion in the presence of soybean LOX-1. […]
# wt12-LOX = target: T2, wt12-LOX (Homo sapiens, UniProt P18054); experiment: UV-Vis-based IC50 assay, wild type 12-LOX; assay type: biochemical
# T2 construct: 6xHis (N); made in house; insert in pFastBac1 shuttle vector (baculovirus system, own inference)
# T2 sequence (P18054 1-663): T1 sequence (P18054 1-663 A417I/V418M) with I417A, M418V
# Experimental: as §1
# The percent inhibition was determined by comparing the enzyme rates of the control (DMSO solvent) and the inhibitor sample by following the formation of the conjugated diene product at 234 nm (ε=25,000 M^−1cm^−1). The reactions were initiated by adding 200 nM 15-LOX-2, 30 nM 12-LOX, 40 nM 15-LOX-1, or approximately 100-300 nM (total protein) of 5-LOX ammonium sulfate fraction to a cuvette with 2 mL reaction buffer, constantly stirred using a magnetic stir bar at room temperature (22° C.). Reaction buffers used for various LOX isozymes were as follows: 25 mM HEPES (pH 7.3), 0.3 mM CaCl2), 0.1 mM EDTA, 0.2 mM ATP, 0.01% Triton X-100, 10 μM AA for the crude, ammonium sulfate precipitated 5-LOX; and 25 mM HEPES (pH 7.5), 0.01% Triton X-100, 10 μM AA for 15-LOX-2, 15-LOX-1, and 12-LOX. The substrate concentration was quantitatively determined by allowing the enzymatic reaction to go to completion in the presence of soybean LOX-1. IC50 values were obtained by determining the % inhibition, relative to solvent vehicle only, at various inhibitor concentrations. […]
smiles,measurement,setting,value
"COc1cccc(CNc2ccc(S(=O)(=O)Nc3nc4c(ccc5ccccc54)s3)cc2)c1O [Compound LOX-12-001, 4-((2-hydroxy-3-methoxybenzyl)amino)-N-(naphtho[1,2-d]thiazol-2-yl)benzenesulfonamide]",IC50,[1]; A417I/V418M,120 ± 40 nM
same,fold decrease in potency (increase in IC50) compared to wt12-LOX,[1]; A417I/V418M vs wt12-LOX,2.4 fold
same,fold increase in potency relative to ML355,wt12-LOX; against wt12-LOX,7.2 fold
same,IC50,"wt12-LOX; wt12-LOX, 10 μM AA, 25 mM HEPES pH 7.5, 22° C.",50 ± 20 nM
